In brackets after ≈: the same amount, converted by molar mass. One block for each molecule: values may come before it.
Tests used:
[1] = target: Tyrosine-protein kinase BTK (Homo sapiens, UniProt Q06187); test: Inhibition of BTK in human whole blood; type: tissue-based
[2] = Aqueous solubility of the compound; type: physicochemical
[3] = target: Human immunodeficiency virus type 1 protease (Human immunodeficiency virus 1, UniProt Q72874); test: Binding affinity to HIV-1 protease assessed as inhibition constant incubated for 60 mins by mass spectrometric analysis

Tyrosine-protein kinase BTK, sequence (Q06187 whole entry): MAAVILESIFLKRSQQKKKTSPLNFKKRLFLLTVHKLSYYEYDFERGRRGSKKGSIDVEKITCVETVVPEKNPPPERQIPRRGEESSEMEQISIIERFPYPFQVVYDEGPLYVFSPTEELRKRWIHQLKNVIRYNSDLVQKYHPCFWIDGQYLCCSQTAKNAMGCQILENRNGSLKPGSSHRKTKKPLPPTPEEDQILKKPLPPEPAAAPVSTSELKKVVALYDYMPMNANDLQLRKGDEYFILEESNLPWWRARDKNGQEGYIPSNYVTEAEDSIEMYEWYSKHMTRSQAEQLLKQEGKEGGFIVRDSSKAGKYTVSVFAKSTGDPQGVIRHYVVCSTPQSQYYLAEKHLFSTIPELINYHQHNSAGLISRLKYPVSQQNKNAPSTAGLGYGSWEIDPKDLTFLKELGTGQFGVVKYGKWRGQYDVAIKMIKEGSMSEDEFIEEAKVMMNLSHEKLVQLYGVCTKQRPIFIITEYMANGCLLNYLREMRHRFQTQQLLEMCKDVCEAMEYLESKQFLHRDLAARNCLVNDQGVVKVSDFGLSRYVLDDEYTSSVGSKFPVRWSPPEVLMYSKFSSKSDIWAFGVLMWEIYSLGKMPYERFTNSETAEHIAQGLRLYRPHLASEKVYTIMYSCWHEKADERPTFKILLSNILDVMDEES

IC50 [1]: 1 nM
Compound: Cn1cc(-c2cccc(-n3ncc4cc(C(C)(C)C)cc(F)c4c3=O)c2CO)cc(Nc2ccc(C(=O)N3CCOCC3)cn2)c1=O

solubility [2]: 1 µg/mL (≈ 1.5 µM)
Compound: Cn1c2c(cc(Nc3ccc(C(=O)N4CCOCC4)cn3)c1=O)-c1cccc(-n3ncc4cc(C(C)(C)C)cc(F)c4c3=O)c1C[C@H](O)C2

Compound: CC(C)[C@H]1Cc2cc(F)ccc2S(=O)(=O)N(C[C@@H](O)[C@H](Cc2ccccc2)NC(=O)O[C@H]2CCOC2)C1
Ki [3]: 0.36 nM

Reference: ChEMBL document CHEMBL5104099, “Recent applications of seven-membered rings in drug design” (Bioorg Med Chem, 2022)
